We go through 2 compounds from patent US20250152584A1, “NLRP3 INFLAMMASOME INHIBITOR AND USES THEREOF” (TransThera Sciences (Nanjing), Inc., priority 2022, published 2025).

Series [1] in a line: Pharmacokinetic study in C57BL/6J mice. It is filed as in vivo. To be noted: mouse, plasma, C57BL/6J female mice; for Tmax: median, read-out: Tmax po (peak time of plasma concentration); for Cmax: read-out: Cmax po (peak concentration); for clearance: read-out: Cl—obs iv (clearance rate) (converted); for Vd: read-out: Vss iv (volume of distribution); for bioavailability: iv 5 mg/kg / po 10 mg/kg, read-out: F % (absolute bioavailability). Here is the method:
Experimental Example 2: Pharmacokinetic Study of Compounds in C57BL/6J Mice
Compound 100, Compound 54, Compound 174, Compound 179, and Compound 253 were prepared into solutions with a mixed solvent formulated from 5% dimethyl sulfoxide, 20% (30% solutol) and 75% normal saline, respectively; the solution of each compound was administered to C57BL/6J female mice by gavage at a dose of 10 mg/kg; and the time points for blood collection were: 15 min, 30 min, 1 h, 2 h, 4 h, 6 h, 8 h and 24 h. The solution of the compound was administered to C57BL/6J female mice by intravenous bolus at a dose of 5 mg/kg, and the time points for blood collection were as follows: 5 min, 15 min, 30 min, 1 h, 2 h, 4 h, 6 h, 8 h, and 24 h.
Compound 1 was prepared into a solution with a mixed solvent formulated from 5% DME, 20% (30% solutol) and 75% normal saline; the solution of this compound was administered to C57BL/6J female mice by gavage at a dose of 10 mg/kg, and the time points for blood collection were: 15 min, 30 min, 1 h, 2 h, 4 h, 6 h, 8 h, and 24 h. The solution of the compound was administered to C57BL/6J female mice by intravenous bolus at a dose of 5 mg/kg, and the time points for blood collection were as follows: 5 min, 15 min, 30 min, 1 h, 2 h, 4 h, 6 h, 8 h, and 24 h.
Compound 195 was prepared into a solution with a mixed solvent formulated from 5% dimethyl sulfoxide, 20% PEG400 and 75% normal saline; the solution of this compound was administered to C57BL/6J female mice by gavage at a dose of 10 mg/kg; and the time points for blood collection were 15 min, 30 min, 1 h, 2 h, 4 h, 6 h, 8 h, and 24 b. The solution of the compound was administered to C57BL/6J female mice by intravenous bolus at a dose of 5 mg/kg, and the time points for blood collection were as follows: 5 min, 15 min, 30 min, 1 h, 2 b, 4 h, 6 h, 8 h, and 24 h.
Approximately 100 μL of blood was collected through the retroorbital venous plexus, and was then placed in an anticoagulant tube containing EDTA-K2. Blood samples were centrifuged at 12,000 rpm for 10 min at 4° C. to obtain plasma samples, and plasma was prepared within 30 min after blood collection. The plasma was stored in a −80° C. freezer before testing.
• 1. The samples were taken from the −80° C. freezer, thawed naturally at room temperature, and then vortexed for 5 min • 2. 10 μL of a plasma sample was precisely pipetted from different individuals into a 1.5 mL centrifuge tube. • 3. 300 μL of an internal standard working solution (the acetonitrile solution of tolbutamide) at a concentration of […] was added and mixed well. • 4. After vortexing for 5 min, the mixture was centrifuged at 12,000 rpm for 5 min. • 5. 50 μL of the supernatant was accurately pipetted into a 96-well plate preloaded with water at 150 μL/well. • 6. Vortexing was performed for 5 min for sufficient mixing, and LC-MS/MS analysis was then conducted.
(§1) The results of the concentrations of the compounds under test were output using Analyst 1.6.3 of AB. Parameters such as mean, standard deviation, coefficient of variation was calculated by Microsoft Excel (parameters directly output by Analyst 1.6.3 needed no calculation), and PK parameters were calculated by WinNonlin Phenoix 8.2 software NCA (Tmax as the median).

Series [2] can be described thus: Pharmacokinetic study in SD male rats. It is filed as in vivo. The conditions noted are these: rat, plasma; for clearance: read-out: Cl—obs iv (clearance rate) (converted); for Vd: read-out: Vss iv (volume of distribution); for bioavailability: iv 1.0 mg/kg / po 5.0 mg/kg, read-out: F % (absolute bioavailability); for Tmax: median, read-out: Tmax po (peak time of plasma concentration); for Cmax: read-out: Cmax po (peak concentration). On the procedure: Experimental Example 3: Pharmacokinetic Study of Compounds in SD Male Rats
Compound 54, Compound 55, Compound 174, Compound 173, and Compound 264 were prepared into solutions with a mixed solvent formulated from 5% dimethyl sulfoxide, 20% (30% solutol) and 75% normal saline, respectively; the solution of each compound was administered to SD male rats by gavage at a dose of 5.0 mg/kg; and the time points for blood collection were: 15 min, 30 min, 1 h, 2 h, 4 h, 6 h, 8 h, 10 h and 24 h. The solution of the compound was administered to male SD rats by intravenous bolus at a dose of 1.0 mg/kg, and the time points for blood collection were as follows: 5 min, 15 min, 30 min, 1 h, 2 h, 4 h, 6 h, 8 h, 10 h, and 24 h.
On the day before administration, the jugular vein of each animal was cannulated; and after administration, about 300 μL of blood was collected through the jugular vein, and then placed in an anticoagulant tube containing EDTA-K2. Blood samples were centrifuged at 12,000 rpm for 10 min at 4° C. to obtain plasma samples, and plasma was prepared within 30 min after blood collection. The plasma was stored in a −80° C. freezer before testing.
• 1. The samples were taken from the −80° C. freezer, thawed naturally at room temperature, and then vortexed for 5 min. • 2. 30 μL of a plasma sample was precisely pipetted into a 1.5 mL centrifuge tube. • 3. 750 μL of an internal standard working solution (the acetonitrile solution of tolbutamide) at a concentration of […] was added and mixed well. • 4. After vortexing for 5 min, the mixture was centrifuged at 12,000 rpm for 5 min. • 5. 50 μL of the supernatant was accurately pipetted into a 96-well plate preloaded with water at 150 μL/well. • 6. Vortexing was performed for 5 min for sufficient mixing, and LC-MS/MS analysis was then conducted.
as §1

The mark [3] stands for this setting: po, gavage 10 mg/kg, read-out: AUClast po (area under the drug-time curve for 0-24 h).
Setting [4] is: po, gavage 10 mg/kg, read-out: tz1/2 po (terminal elimination half-life) (converted).
Where [5] appears, read: intravenous bolus 5 mg/kg, read-out: AUClast iv (area under the drug-time curve for 0-24 h).
Where [6] appears, read: intravenous bolus 5 mg/kg, read-out: tz1/2 iv (terminal elimination half-life) (converted).
Setting [7] is: intravenous bolus 1.0 mg/kg, read-out: AUClast iv (area under the drug-time curve for 0-24 h).
Setting [8] is: intravenous bolus 1.0 mg/kg, read-out: tz1/2 iv (terminal elimination half-life) (converted).
Where [9] appears, read: po, gavage 5.0 mg/kg, read-out: AUClast po (area under the drug-time curve for 0-24 h).
Setting [10] is: po, gavage 5.0 mg/kg, read-out: tz1/2 po (terminal elimination half-life) (converted).

On to `C#Cc1ccc(-c2nnc(N[C@@H]3CCCN(C)C3)cc2C)c(O)c1` [Compound 54, (R)-5-ethynyl-2-(4-methyl-6-((1-methylpiperidin-3-yl)amino)pyridazin-3-yl)phenol], for which the Tmax in series [1] (po, gavage 10 mg/kg) was 1 h; in series [2] (po, gavage 5.0 mg/kg), 1 h. Further, the AUC(0-t) in series [1] (setting [3]) came to 4130 ng·h/mL; in series [1] (setting [5]), 2400 ng·h/mL; in series [2] (setting [7]), 749 ng·h/mL; in series [2] (setting [9]), 3790 ng·h/mL. Further, the Cmax stood at 820 ng/mL in series [1] (po, gavage 10 mg/kg) and 442 ng/mL in series [2] (po, gavage 5.0 mg/kg). Further, the half-life was 3.04 h in series [1] (setting [4]), 2.97 h in series [1] (setting [6]), 2.97 h in series [2] (setting [8]) and 3.94 h in series [2] (setting [10]). The clearance in series [1] (intravenous bolus 5 mg/kg) was 30.5 mL/min/kg; in series [2] (intravenous bolus 1.0 mg/kg) it was 20.2 mL/min/kg. Besides, the Vd in series [1] (intravenous bolus 5 mg/kg) came to 6.59 L/kg; in series [2] (intravenous bolus 1.0 mg/kg), 5.01 L/kg. Also, the bioavailability worked out at 75.6% in series [1] and 93.1% in series [2].
With `CC#Cc1ccc(-c2nnc(N[C@@H]3CCCN(C)C3)cc2C)c(O)c1` [Compound 174, (R)-2-(4-methyl-6-((1-methylpiperidin-3-yl)amino)pyridazin-3-yl)-5-(prop-1-yn-1-yl)phenol], the Tmax stood at 0.5 h in series [1] (po, gavage 10 mg/kg) and 2 h in series [2] (po, gavage 5.0 mg/kg). The AUC(0-t) turned out to be 20100 ng·h/mL in series [1] (setting [3]), 8610 ng·h/mL in series [1] (setting [5]), 813 ng·h/mL in series [2] (setting [7]) and 4430 ng·h/mL in series [2] (setting [9]). Besides, the Cmax in series [1] (po, gavage 10 mg/kg) was 3160 ng/mL; in series [2] (po, gavage 5.0 mg/kg), 465 ng/mL. The half-life in series [1] (setting [4]) was 3.82 h; in series [1] (setting [6]), 3.95 h; in series [2] (setting [8]), 3.6 h; in series [2] (setting [10]), 3.51 h. Further, the values for the clearance in series [1] (intravenous bolus 5 mg/kg) and in series [2] (intravenous bolus 1.0 mg/kg) were 9.57 mL/min/kg and 18.2 mL/min/kg, respectively. Moreover, the Vd in series [1] (intravenous bolus 5 mg/kg) turned out to be 2.64 L/kg; in series [2] (intravenous bolus 1.0 mg/kg), 4.82 L/kg. For the same compound, the bioavailability amounted to 116% in series [1] and 97% in series [2].

Usually clearance stands for the volume of plasma or blood freed of the substance per unit of time.
